Test [1] concerns Rhodopirellula baltica RbMPO variant D202A (of SEQ ID NO: 1). Briefly: Heme reconstitution (apo to holo) by tryptophan fluorescence quenching. The format is binding. To be noted: D202A 1 μM; 25° C., pH7.5. As to the method:
(§1) Tryptophan fluorescence quenching and recovery can be used to monitor the protein confirmation changes from an “apo” to an “holo” form upon addition of its coenzyme (herein heme).
(§2) The Trp fluorescence quenching experiment was performed in a spectrofluorometric FP8300 with a temperature-controlled stirred-cell (25° C.). […] Sample dilutions were performed in a 50 mM pH7.5 sodium phosphate buffer.

Test [2] addresses Rhodopirellula baltica RbMPO variant D202A, E316A (of SEQ ID NO: 1). The description is as above. The following applies: E316A 1 μM, 25° C., pH7.5. The format is binding. As to the method: as §1, §2
Test [3] concerns Rhodopirellula baltica RbMPO variant E316A (of SEQ ID NO: 1). Described as above. To be noted: E316A 1 μM; 25° C., pH7.5. The format is binding. How it is done:
as §1, §2

Test [4] concerns Rhodopirellula baltica RbMPO variant H203A (of SEQ ID NO: 1). The description is as above. Format: binding. To be noted: H203A 1 μM; 25° C., pH7.5. As to the method:
as §1, §2

The subject of test [5] is Rhodopirellula baltica RbMPO variant H407A (of SEQ ID NO: 1). Described as above. The following applies: H407A 1 μM; 25° C., pH7.5. The format is binding. As to the method:
as §1, §2

In test [6] the test system is Rhodopirellula baltica RbMPO variant N317M (of SEQ ID NO: 1). The description is as above. Format: binding. To be noted: N317M 1 μM; 25° C., pH7.5. As to the method: as §1, §2
Test [7] deals with Rhodopirellula baltica RbMPO variant Q199A (of SEQ ID NO: 1). Described as above. To be noted: Q199A 1 μM; 25° C., pH7.5. The format is binding. As to the method:
as §1, §2

For test [8], the system named is Rhodopirellula baltica RbMPO, wild type, SEQ ID NO: 1. The description is as above. To be noted: wt RbMPO 1 μM; 25° C., pH7.5. The format is binding. How it is done:
as §1, §2

The test system is the same in test [9]. To be noted: 0.5 nM wt RbMPO, 79 μM H2O2, 37° C., pH5.5. As to the method: The plate reader was configured to run a 10 min kinetics at 430 nm with the following ABTS concentration range: 0, 0.1, 0.2, 0.5, 1, 2, 5, 10, 15, 20, 30 and 40 mM.
The test system is the same in test [10]. Briefly: Pre-steady-state kinetics: compound I formation and return to native state (stopped-flow, 412 nm). Format: biochemical. The following applies: wt RbMPO […], H2O2 20 μM, 37° C., pH7.5. As to the method: In the first moment after an enzyme is mixed with a substrate, no product has been formed and no intermediates exist. The study of the next few milliseconds of the reaction is called pre-steady-state kinetics.
Kinetic parameters under pre-steady-state condition were performed with a Biologic SFM400 stopped-flow at 412 nm, 37° C. and with 50 mM sodium phosphate buffer at pH7.5. […] An exponential linear fit was applied to each kinetic using the following formula: […]
where p1 corresponds to the exponential magnitude, p2 to the decay time Tau (s) and
The heme Soret band is at 412 nm for the native Fe^III iron form, which is why the decrease in absorbance was followed at this particular wavelength as a function of time. The rate constant was measured using the A412nm curves as a function of time (data not shown). By applying Eq.4 to the exponential part of each kinetic, the values of Tau (s) were determined and the kobs (s^−1) were calculated.
The return of the enzyme to its native state was studied by the impact of increasing concentrations of (pseudo)-halides substrates on compound I (FIG. 9B). […] It is the time difference (s) between the two characteristic steps that allowed the calculation of the values of the Vreturn(μM^−1.s^−1) values: […]

The test system is the same in test [11]. The following applies: wt, 300 nM enzyme; for kss/[Cl^−] (k2): NaCl range; for kss/[Cl^−] (k2) / kcatapp/KMappNaSCN (NaBr range): 79 μM H2O2.
Method: (§3) Initial rate measurements under steady state conditions were performed with a BioLogic SFM400 stopped-flow by using a single-mixing mode and an Xe/Hg lamp and a TC100/10 cell. […] At least five 120 s shots were monitored for each value of the substrate range with the following sample rates: 20 μs, 20 ms, 20 ms with 2000 points per period. Slopes were calculated from the average of the shorts for each concentration and kss (s^−1) were determined from the slopes using the following formula:
(§4) The collected data were analysed with Origin software, then saturation curves for each substrate were fitted either by non-linear regression with or without inhibition by excess of substrate (Eq. 1 and 2) with [S]the substrate of interest, or by linear regression (Eq. 3) with a the slope and b the y-intercept.
(§5) The stopped-flow was used to define the steady-state kinetic parameters of RbMPOs. […] From the averages of the curves obtained for each shot, the slopes in Abs.s^−1 were calculated and then converted into kss by the following relation:
Test [12] concerns Rhodopirellula baltica RbMPO variant N317M (of SEQ ID NO: 1).
Method: as §3, §4, §5
Test [13] has as its system Rhodopirellula baltica RbMPO variant D202A (of SEQ ID NO: 1). To be noted: pH 7.5.
Method: as §3, §4, §5
Test [14] concerns Rhodopirellula baltica RbMPO variant H407A (of SEQ ID NO: 1).
Method: as §3, §4
(§6) From the averages of the curves obtained for each shot, the slopes in Abs.s^−1 were calculated and then converted into kss by the following relation:
Test [15] deals with Rhodopirellula baltica RbMPO variant E316A (of SEQ ID NO: 1).
Method: as §3, §4, §5
In test [16] the test system is Rhodopirellula baltica RbMPO variant Q199A (of SEQ ID NO: 1).
Method: as §3, §4, §5
For test [17], the system named is Rhodopirellula baltica RbMPO variant D202A, E316A (of SEQ ID NO: 1).
Method: as §3, §4, §6
Test [18] relates to Rhodopirellula baltica RbMPO variant H203A (of SEQ ID NO: 1).
Method: as §3, §4, §6

As usually defined, the Kd is the constant that tells how readily two partners part at equilibrium. The low end stands for tighter binding, the high end for weaker binding.

Values joined by “and” are separate entries in the source; they are usually repeats but may differ in a detail not shown here. Identical values can stand only once. Like-named read-outs stand apart in the source and are kept apart here.

For `C=CC1=C(C)c2cc3[nH]c(cc4nc(cc5[nH]c(cc1n2)c(C)c5CCC(=O)O)C(CCC(=O)O)=C4C)c(C)c3C=C.[Fe+3]` [heme], the “k2 (heme reconstitution)” value in test [1] was 302+23.4 M−1 · s−1; in test [3], 418 ± 34 M⁻¹ s⁻¹; in test [4], 1840 ± 167 M⁻¹ s⁻¹; in [5] it was 1320 ± 18.9 M⁻¹ s⁻¹; in test [6], 470.2 ± 57.8 M⁻¹ s⁻¹ and 472.2 ± 57.8 M⁻¹ s⁻¹; in test [7], 1720 ± 133 M⁻¹ s⁻¹. Besides, the “k2 (heme reconstitution)” value in [8] worked out at 1430 ± 74.4 M⁻¹ s⁻¹. This compound had a Kd in test [2] of 10.9 ± 6.14 µM. In addition, in test [2], the “Kobsmax (heme reconstitution)” value is 0.28 ± 0.06 s⁻¹.
On to `CCn1c(=NN=c2sc3cc(S(=O)(=O)O)ccc3n2CC)sc2cc(S(=O)(=O)O)ccc21` [ABTS, 2,2′-azino-bis(3-ethylbenzothiazoline-6-sulfonic acid)], for which the “k2 (peroxidase, ABTS)” value in test [9] came to 10620 ± 1510 M⁻¹ s⁻¹.
`N#C[S-].[Na+]` [NaSCN]: the “Vreturn (Sreturn/[enzyme])” value in [10] came to 13.65 ± 0.51 s⁻¹. Also, the “kreturn max (return to native state)” value in test [10] was determined as 25.94 ± 0.97 µM/s. For the same compound, the Km in test [11] (read-out: KMapp (NaSCN), 79 μM H2O2, 37° C., pH 7.5) came out at 510 ± 80 µM; in test [13] (read-out: KMapp (NaSCN)), 980 ± 310 µM. In addition, the “kcatapp (NaSCN)” value turned out to be 56.90 ± 6.92 s⁻¹ in test [11] (79 μM H2O2, 37° C., pH 7.5) and 83.54 ± 12.04 s⁻¹ in test [13]. The “k2 (NaSCN)” value in [12] (pH 7.5) is 1074 ± 53 M⁻¹ s⁻¹; in [15] (pH 7.5), 1936 ± 374 M⁻¹ s⁻¹. The “activity in presence of SCN” value in test [14] was “not active”. In addition, the “activity (NaSCN range)” value in test [16] is “No activity”.
Turning to `[Cl-].[Na+]` [NaCl], in [10], the “Vreturn (Sreturn/[enzyme])” value amounted to 1.37 ± 0.19 s⁻¹, the “kreturn max (return to native state)” value turned out to be 2.61 ± 0.37 µM/s and the “kreturn/K1/2 (return to native state)” value was found to be 5169 ± 4872 M⁻¹ s⁻¹. For the same compound, the “kss/[Cl^−] (k2)” value in test [11] was 5.46 ± 0.67 M⁻¹ s⁻¹. Moreover, the “kss/[Cl^−] (k2)” value in [11] (listed as Cl^−) was found to be 4.48 ± 0.64 M⁻¹ s⁻¹.
Consider `[Br-].[Na+]` [NaBr], for which the “Vreturn (Sreturn/[enzyme])” value in test [10] amounted to 11.11 ± 0.57 s⁻¹. Moreover, in [10], the “kreturn max (return to native state)” value amounted to 21.11 ± 1.09 µM/s. Besides, the “kreturn/K1/2 (return to native state)” value in [10] is 607.77 ± 161.51 M⁻¹ s⁻¹. The Km in [11] (read-out: KMapp (NaBr), 79 μM H2O2, 37° C., pH 7.5) came to 133000 ± 32800 µM. The “kcatapp (NaBr)” value in test [11] (79 μM H2O2, 37° C., pH 7.5) turned out to be 76.33 ± 5.12 s⁻¹. The “kcatapp/KMappNaSCN (NaBr range)” value was determined as 576.86 ± 172.22 M⁻¹ s⁻¹ in test [11] and 576.96 ± 172.22 M⁻¹ s⁻¹ in test [11] (listed as Br^−). In addition, the entries for the “kss/[SCN^−] (NaBr range)” value in [12], in [18] and in test [16] were 2.22 ± 1.20 M⁻¹ s⁻¹, 73.94 ± 15.07 M⁻¹ s⁻¹ and 78.19 ± 22.00 M⁻¹ s⁻¹, respectively. The “activity (NaBr range)” value in [15] and in test [17] was “No activity” throughout.
With `I` [I^−], in test [10], the “Vreturn (Sreturn/[enzyme])” value was determined as 16.66 ± 0.65 s⁻¹ and the “kreturn max (return to native state)” value was 31.65 ± 1.23 µM/s.
